Structures are written as SMILES.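 96-well plates; 48 h exposure; 5 concentrations. Endpoints by linear interpolation between flanking doses. Not reached: highest tested concentration assigned. TGI: total growth inhibition.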

Test systems include SK-MEL-2 melanoma; 786-0 renal; DU-145 prostate; BT-549 breast; SNB-19 CNS; U251 CNS; A498 renal; HCT-116 colon; IGROV1 ovarian; NCI-H460 lung; MOLT-4 leukemia; NCI-H23 lung; EKVX NSCLC.
Test in all cases: DTP human tumour cell line panel, 48 h

For `CC(=O)OCCOCn1cnc2c(Cl)nc(Cl)nc21`, the TGI was 55.6 µM in the assay on SK-MEL-2 melanoma; 58 µM in the assay with 786-0 renal; 36.5 µM with DU-145 prostate; 36.4 µM in the assay on BT-549 breast; > 100 µM in the assay with SNB-19 CNS; 29.2 µM in the assay on U251 CNS. For the same compound, the TGI is 91.2 µM with A498 renal; 32 µM in the assay on HCT-116 colon; 30.6 µM in the assay on IGROV1 ovarian; 35 µM in the assay on NCI-H460 lung; 40 µM in the assay with MOLT-4 leukemia; 36.1 µM in the assay on NCI-H23 lung. This compound also had a TGI in the assay on EKVX NSCLC of 7.83 µM.

Consider `CC(=O)N[C@@H](Cc1ccc(O)cn1)C(=O)NCc1cccc(Cl)c1`, for which the TGI in the assay on SK-MEL-2 melanoma, with 786-0 renal, in the assay with DU-145 prostate, in the assay with BT-549 breast, in the assay on SNB-19 CNS and with U251 CNS was > 100 µM in each case. In addition, the TGI in the assay with A498 renal, in the assay on HCT-116 colon, in the assay on IGROV1 ovarian, with NCI-H460 lung, in the assay with MOLT-4 leukemia and in the assay with NCI-H23 lung was > 100 µM each time. For the same compound, the TGI with EKVX NSCLC was > 100 µM.

`COc1cc(/C=C2\N=C(c3ccccc3)N(c3nc4c(OC)ccc(OC)c4s3)C2=O)ccc1O`: the TGI in the assay with SK-MEL-2 melanoma, in the assay with 786-0 renal, in the assay with DU-145 prostate, with BT-549 breast, in the assay on SNB-19 CNS and in the assay with U251 CNS was > 100 µM each time. Also, the TGI with A498 renal was > 100 µM; in the assay on HCT-116 colon, > 100 µM; with IGROV1 ovarian, > 100 µM; in the assay on NCI-H460 lung it was > 100 µM; in the assay with MOLT-4 leukemia, 39.5 µM; in the assay on NCI-H23 lung, > 100 µM. Moreover, in the assay with EKVX NSCLC, the TGI is > 100 µM.

As for `CNc1nc2n(CCO)c(-c3ccccc3)c(-c3ccccc3)nc-2c(=O)n1`, the TGI with SK-MEL-2 melanoma, with 786-0 renal, in the assay with DU-145 prostate, with BT-549 breast, in the assay with SNB-19 CNS and in the assay with U251 CNS was > 50 µM each time. Besides, the TGI with A498 renal, with HCT-116 colon, in the assay on IGROV1 ovarian, in the assay on NCI-H460 lung, in the assay with MOLT-4 leukemia and in the assay with NCI-H23 lung was > 50 µM each time. The TGI with EKVX NSCLC was > 50 µM.

With `Cc1ccc(NC(=S)N/N=C(/c2ccccc2)c2ccccn2)cc1`, the TGI with SK-MEL-2 melanoma worked out at 15.1 µM; with 786-0 renal it was 13.7 µM; with DU-145 prostate, 18.8 µM; in the assay with BT-549 breast it was 19.1 µM; in the assay with SNB-19 CNS, 22.2 µM; with U251 CNS it was 12.9 µM. Moreover, the TGI in the assay on A498 renal is 11.2 µM; with HCT-116 colon it was 14 µM; in the assay with IGROV1 ovarian, 18.9 µM; in the assay with NCI-H460 lung, 7.05 µM; in the assay on MOLT-4 leukemia it was > 12.3 µM; with NCI-H23 lung, 26.7 µM. In the assay with EKVX NSCLC, this compound showed a TGI of 12.9 µM.

Turning to `Cc1ccc(C)c(COCCOCn2ccc(N)nc2=O)c1`, the TGI in the assay with SK-MEL-2 melanoma, in the assay with 786-0 renal, in the assay with DU-145 prostate, in the assay with BT-549 breast, with SNB-19 CNS and with U251 CNS was > 100 µM each time. The TGI in the assay with A498 renal, with HCT-116 colon, in the assay with IGROV1 ovarian, in the assay with NCI-H460 lung, in the assay with MOLT-4 leukemia and in the assay on NCI-H23 lung was > 100 µM in each case. For the same compound, the TGI in the assay on EKVX NSCLC was > 100 µM.

As for `CC(C)(C)c1ccc(-c2nc3ccc(Cl)cc3c(=O)o2)cc1`, the TGI is 44.2 µM in the assay on SK-MEL-2 melanoma; > 100 µM with 786-0 renal; 92.4 µM in the assay on DU-145 prostate; 63.6 µM with BT-549 breast; 80.1 µM in the assay with SNB-19 CNS; 31.3 µM with U251 CNS. For the same compound, the TGI was 79.4 µM with A498 renal; 40.5 µM with HCT-116 colon; 87.2 µM with IGROV1 ovarian; > 100 µM in the assay on NCI-H460 lung; 36.3 µM in the assay on MOLT-4 leukemia; 35 µM with NCI-H23 lung. This compound also registered a TGI with EKVX NSCLC of 70 µM.

Take `COc1ccc(O)c(/C(C)=N/NC(=S)N(C)C)c1`: the TGI in the assay on SK-MEL-2 melanoma, with 786-0 renal, in the assay with DU-145 prostate, in the assay on BT-549 breast, in the assay with SNB-19 CNS and in the assay with U251 CNS was > 100 µM in each case. Moreover, the TGI is > 100 µM with A498 renal; > 100 µM in the assay with HCT-116 colon; > 100 µM in the assay with IGROV1 ovarian; > 100 µM with NCI-H460 lung; > 100 µM in the assay on MOLT-4 leukemia; > 88.5 µM in the assay on NCI-H23 lung. Further, the TGI with EKVX NSCLC is > 100 µM.

Consider `COc1ccc(CCN2CCN(CCc3ccc(OC)cc3)CC2)cc1`, for which the TGI in the assay with SK-MEL-2 melanoma, with 786-0 renal, in the assay on DU-145 prostate, with BT-549 breast, with SNB-19 CNS and in the assay with U251 CNS was > 100 µM each time. The TGI in the assay with A498 renal, in the assay with HCT-116 colon, in the assay with IGROV1 ovarian, in the assay on NCI-H460 lung, in the assay with MOLT-4 leukemia and in the assay with NCI-H23 lung was > 100 µM in each case. For the same compound, the TGI in the assay on EKVX NSCLC is > 100 µM.

As to `CN(C)/C=N/S(=O)(=O)c1nn2c(C=O)c(-c3ccc(Cl)cc3)nc2s1`, the TGI in the assay on SK-MEL-2 melanoma worked out at 21.3 µM; with 786-0 renal it was 2.5 µM; in the assay with DU-145 prostate it was 6.02 µM; with BT-549 breast, 2.83 µM; with SNB-19 CNS, 28.8 µM; in the assay with U251 CNS it was 11.7 µM. In addition, the TGI with A498 renal was found to be 30.3 µM; in the assay on HCT-116 colon it was 2.18 µM; in the assay on NCI-H460 lung, 22.4 µM; in the assay with MOLT-4 leukemia, 2.68 µM; in the assay with NCI-H23 lung, 9.81 µM; in the assay on EKVX NSCLC it was 12.7 µM.

Consider `CC(C)=CC(=O)C[C@H]1C(=O)O[C@@H]2C[C@H]3C(C)=CC(=O)[C@@H](O)[C@]3(C)[C@H]3[C@@]4(O)OC[C@]32[C@@H]1[C@@H](C)[C@H]4O`, for which the TGI with SK-MEL-2 melanoma was found to be 0.274 µM; in the assay on 786-0 renal, 0.838 µM; in the assay on DU-145 prostate, 0.12 µM; with BT-549 breast it was 0.205 µM; with U251 CNS it was 0.137 µM; in the assay with A498 renal it was 1.15 µM. Further, the TGI is 0.114 µM in the assay on HCT-116 colon; 0.941 µM with IGROV1 ovarian; 0.743 µM in the assay on NCI-H460 lung; > 100 µM in the assay with MOLT-4 leukemia; 0.042 µM in the assay on NCI-H23 lung; 4.25 µM in the assay on EKVX NSCLC.

For the compound `CCOP(=O)(CN1CCNCCNCC1)OCC`, the TGI in the assay with SK-MEL-2 melanoma, in the assay on 786-0 renal, in the assay on DU-145 prostate, with BT-549 breast, in the assay on SNB-19 CNS and in the assay on U251 CNS was > 100 µM throughout. Moreover, the TGI in the assay with A498 renal, in the assay with HCT-116 colon, in the assay with IGROV1 ovarian, with NCI-H460 lung, with MOLT-4 leukemia and in the assay on EKVX NSCLC was > 100 µM in each case.

As to `CC1ON2CCCC2[C@H]1C(=O)N1C2CC3CCC2(CS1(=O)=O)C3(C)C` (stereo partly specified), the TGI in the assay with SK-MEL-2 melanoma, with 786-0 renal, with DU-145 prostate, with BT-549 breast, in the assay with U251 CNS and in the assay with A498 renal was > 100 µM throughout. For the same compound, the TGI with HCT-116 colon, with IGROV1 ovarian, with NCI-H460 lung, in the assay on MOLT-4 leukemia, in the assay on NCI-H23 lung and in the assay on EKVX NSCLC was > 100 µM each time.

In the case of `O=C1N[C@@H](c2c[nH]c3cc(Br)ccc23)C(=O)N[C@H]1c1c[nH]c2cc(Br)ccc12`, the TGI in the assay with SK-MEL-2 melanoma was > 100 µM; in the assay on 786-0 renal, > 100 µM; with DU-145 prostate, > 100 µM; in the assay with BT-549 breast, > 100 µM; with SNB-19 CNS, > 100 µM; in the assay on U251 CNS, 60.1 µM. The TGI in the assay on A498 renal, in the assay with HCT-116 colon, with IGROV1 ovarian, in the assay with NCI-H460 lung, in the assay on NCI-H23 lung and in the assay on EKVX NSCLC was > 100 µM each time.

As to `O=C1C=CC=C/C1=C1\N=C(c2ccccc2OCC(=O)c2ccc(Br)cc2)SS1`, the TGI in the assay on SK-MEL-2 melanoma is > 100 µM; with 786-0 renal, > 100 µM; in the assay with DU-145 prostate, > 100 µM; in the assay with BT-549 breast, 62.9 µM; in the assay with SNB-19 CNS it was > 100 µM; with U251 CNS, > 100 µM. The TGI in the assay on A498 renal was > 100 µM; in the assay with HCT-116 colon, > 100 µM; in the assay on IGROV1 ovarian, 71.3 µM; in the assay on NCI-H460 lung it was > 100 µM; with NCI-H23 lung, > 100 µM; in the assay with EKVX NSCLC, > 100 µM.

With `CCn1c(SCC(=O)NNC(=S)Nc2ccc(C)cc2)nc2ccccc2c1=O`, the TGI with SK-MEL-2 melanoma, with 786-0 renal, in the assay with DU-145 prostate, with BT-549 breast, in the assay with SNB-19 CNS and in the assay on U251 CNS was > 100 µM throughout. In addition, the TGI in the assay on A498 renal, in the assay on HCT-116 colon, with IGROV1 ovarian, with MOLT-4 leukemia, with NCI-H23 lung and in the assay with EKVX NSCLC was > 100 µM in each case.

For the origin of these results see PubChem BioAssay (NCI).
